The text below walks through data of ChEMBL document CHEMBL1201862, “PubChem BioAssay data set” (2004).

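Following 48 hours of exposure in 96-well plates, responses at five concentrations were used to interpolate endpoints linearly. The concentration for 50% growth inhibition is given as GI50.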 Activity calls are given as the source filed them. Cut-off read from the data, not from the text of the source: active = GI50 up to about 1.1 µM and inactive = higher. A value given as a limit tells only on which side of the number the result lay.

Among the test systems are HT-29; SF-295; SNB-75; HCC 2998; UACC-62; OVCAR-5; NCI-H23; HOP-92; OVCAR-4; K562; MOLT-4; UACC-257; HCT-15; DU-145; COLO 205; NCI/ADR-RES; MDA-MB-231; PC-3; Hs-578T.
Holding throughout (test): DTP human tumour cell line panel, 48 h

With `COC(=O)CSc1nnc(-c2ccc(O)c([N+](=O)[O-])c2)[nH]1`, the GI50 with HT-29, with SF-295, with SNB-75, with HCC 2998, with UACC-62 and in the test on OVCAR-5 was > 100 µM (inactive) each time. The GI50 in the test on NCI-H23, with HOP-92, in the test on OVCAR-4, with K562, with MOLT-4 and in the test on UACC-257 was > 100 µM (inactive) throughout. In addition, the concentration for 50% growth inhibition (GI50) with HCT-15 was greater than 100 µM.

Consider `Brc1ccc2c(-c3csc(-c4c[nH]c5ccccc45)n3)c[nH]c2c1`, for which the GI50 was 15.6 µM (inactive) in the test with HT-29; 18.8 µM (inactive) in the test with DU-145; 24.4 µM (inactive) in the test with SNB-75; 15.1 µM (inactive) in the test with HCC 2998; 18.2 µM (inactive) with UACC-62; 12.8 µM (inactive) with COLO 205. For the same compound, the GI50 in the test on OVCAR-5 is 16.1 µM (inactive); in the test on HOP-92, 15.6 µM (inactive); in the test with OVCAR-4, 16 µM (inactive); with NCI/ADR-RES, 16.8 µM (inactive); in the test on UACC-257, 22.8 µM (inactive); with MDA-MB-231 it was 16.1 µM (inactive). Also, the GI50 in the test on PC-3 is 15.6 µM (inactive).

For the compound `NCCCCN(CCCN)/[N+]([O-])=N\O`, the GI50 in the test on HT-29, in the test with SF-295, in the test on SNB-75, in the test with HCC 2998, in the test with UACC-62 and with COLO 205 was > 100 µM (inactive) throughout. The GI50 in the test with OVCAR-5, with NCI-H23, in the test on HOP-92, in the test with OVCAR-4, in the test with K562 and with MOLT-4 was > 100 µM (inactive) throughout. For the same compound, the GI50 is > 100 µM (inactive) in the test with UACC-257 and greater than 100 µM with HCT-15.

As for `N#C[C@H]1C(=O)C(c2nc3ccccc3[nH]2)S[C@H]1c1ccccc1` (stereo partly drawn), the GI50 is 32.2 µM (inactive) in the test on HT-29; 45.1 µM (inactive) in the test on DU-145; 25.2 µM (inactive) with SF-295; 50 µM (inactive) in the test on HCC 2998; 15.3 µM (inactive) with UACC-62; 51.5 µM (inactive) in the test with COLO 205. Also, the GI50 in the test with Hs-578T was 45.2 µM (inactive); in the test with OVCAR-5, 92.9 µM (inactive); in the test with NCI-H23, 27.5 µM (inactive); in the test with HOP-92, 25.5 µM (inactive); with OVCAR-4 it was 34.2 µM (inactive); in the test with NCI/ADR-RES it was 30.9 µM (inactive). Besides, the GI50 in the test with K562 is 35.2 µM (inactive); in the test with MOLT-4 it was 33.7 µM (inactive); with UACC-257, 63.2 µM (inactive); with HCT-15, 38 µM.

On to `CNS(=O)(=O)NNS(=O)(=O)c1ccc(Br)cc1`, for which the GI50 was > 100 µM (inactive) with HT-29; 47 µM (inactive) with SNB-75; > 100 µM (inactive) with HCC 2998; > 100 µM (inactive) in the test with UACC-62; > 100 µM (inactive) in the test with COLO 205; > 100 µM (inactive) in the test with OVCAR-5. The GI50 in the test on NCI-H23 is > 100 µM (inactive); with HOP-92 it was 32.1 µM (inactive); in the test on OVCAR-4 it was > 100 µM (inactive); with K562, > 100 µM (inactive); with UACC-257, > 100 µM (inactive); in the test with HCT-15 it was greater than 100 µM.

On to `NC(=O)NC1C(C(=O)O)N(Cc2ccccc2)C(=O)N1Cc1ccccc1` (stereo not drawn), for which the GI50 with HT-29, in the test on SF-295, in the test on SNB-75, in the test with HCC 2998, with UACC-62 and in the test with COLO 205 was > 100 µM (inactive) in each case. The GI50 is > 100 µM (inactive) in the test with OVCAR-5; > 100 µM (inactive) in the test on NCI-H23; > 100 µM (inactive) with HOP-92; > 100 µM (inactive) in the test on OVCAR-4; > 100 µM (inactive) in the test on K562; 3.72 µM (inactive) in the test on MOLT-4. For the same compound, the GI50 with UACC-257 is > 100 µM (inactive); with HCT-15 it was greater than 100 µM.

On to `CC(=O)NC(Cc1ccccc1)C(=S)N1CCCC1` (stereo not drawn), for which the GI50 with HT-29 was > 100 µM (inactive); in the test on SF-295 it was > 100 µM (inactive); in the test with SNB-75, 55.3 µM (inactive); in the test on HCC 2998, > 100 µM (inactive); in the test with UACC-62, > 100 µM (inactive); with COLO 205, > 100 µM (inactive). In addition, the GI50 was > 100 µM (inactive) in the test with OVCAR-5; > 100 µM (inactive) in the test with NCI-H23; > 80.5 µM (inactive) in the test with HOP-92; > 100 µM (inactive) in the test with OVCAR-4; > 100 µM (inactive) with K562; > 100 µM (inactive) with MOLT-4. In addition, the GI50 in the test on UACC-257 is > 100 µM (inactive); with HCT-15 it was greater than 100 µM.

Turning to `Cc1c2ccncc2c(C)c2c1[nH]c1ccc(Cl)cc12`, the GI50 is 2.2 µM (inactive) with HT-29; 3.55 µM (inactive) in the test on SNB-75; 7.76 µM (inactive) with HCC 2998; 3.37 µM (inactive) in the test with UACC-62; 2.16 µM (inactive) in the test with COLO 205; 7.05 µM (inactive) in the test with OVCAR-5. For the same compound, the GI50 in the test with NCI-H23 is 3.56 µM (inactive); in the test with OVCAR-4, 2.11 µM (inactive); in the test with NCI/ADR-RES it was 1.22 µM (inactive); in the test on K562, 1.62 µM (inactive); in the test with HCT-15, 1.75 µM.

Turning to `COc1ccc(OCC(=O)O)c2c1CCCC2=O`, the GI50 was > 100 µM (inactive) in the test on HT-29; > 100 µM (inactive) in the test with SF-295; 62.8 µM (inactive) in the test on SNB-75; > 100 µM (inactive) in the test on HCC 2998; 81.3 µM (inactive) in the test with UACC-62; > 100 µM (inactive) with COLO 205. In addition, the GI50 with OVCAR-5, with NCI-H23, in the test with HOP-92, in the test with OVCAR-4, in the test with K562 and in the test on MOLT-4 was > 100 µM (inactive) throughout. Besides, the GI50 in the test with UACC-257 was > 100 µM (inactive); with HCT-15, greater than 100 µM.

Consider `COC(=O)C(=O)C(C#N)c1cccc2ccccc12` (stereo not drawn), for which the GI50 with HT-29 was > 100 µM (inactive); in the test on SF-295, > 100 µM (inactive); in the test on SNB-75, 97.3 µM (inactive); with HCC 2998, > 100 µM (inactive); with UACC-62 it was > 100 µM (inactive); in the test with COLO 205 it was > 100 µM (inactive). Moreover, the GI50 with OVCAR-5, in the test with NCI-H23, in the test on HOP-92, in the test on OVCAR-4, in the test on K562 and in the test with MOLT-4 was > 100 µM (inactive) in each case. Besides, the GI50 was > 100 µM (inactive) in the test with UACC-257 and greater than 100 µM in the test on HCT-15.

For the compound `COc1cc2c(c(OC)c1OC)-c1ccc(OC)c(=O)cc1C(NC(=O)c1ccc(N=[N+]=[N-])cc1)CC2` (stereo not drawn), the GI50 is 0.0288 µM (active) in the test with HT-29; 0.0378 µM (active) with DU-145; 0.0246 µM (active) in the test with SF-295; 0.766 µM (active) in the test on SNB-75; 0.0215 µM (active) in the test with HCC 2998; 0.0275 µM (active) in the test on UACC-62. The GI50 was 0.021 µM (active) in the test with COLO 205; 0.084 µM (active) in the test on Hs-578T; 0.0327 µM (active) with NCI-H23; 0.0396 µM (active) in the test with HOP-92; 1.24 µM (inactive) with OVCAR-4; 0.0246 µM (active) in the test with K562. Besides, the concentration for 50% growth inhibition (GI50) is 0.0411 µM (active) with MOLT-4, 0.615 µM (active) with UACC-257, 0.0352 µM (active) in the test with MDA-MB-231 and 0.111 µM in the test with HCT-15.

On to `COC(=O)C12C3C4C5C3(C#N)C1C5(C(=O)OC)C42C(=O)N(C(C)C)C(C)C` (stereo not drawn), for which the GI50 was > 100 µM (inactive) in the test with HT-29; > 100 µM (inactive) with SF-295; > 100 µM (inactive) in the test with SNB-75; > 96.6 µM (inactive) with HCC 2998; > 100 µM (inactive) in the test on UACC-62; > 60.4 µM (inactive) with COLO 205. For the same compound, the GI50 in the test on OVCAR-5 was > 100 µM (inactive); in the test with NCI-H23, > 100 µM (inactive); in the test with HOP-92, > 100 µM (inactive); in the test on OVCAR-4 it was > 100 µM (inactive); in the test on K562 it was > 49.4 µM (inactive); with MOLT-4 it was 66.2 µM (inactive). In addition, the values for the GI50 with UACC-257 and with HCT-15 were > 100 µM (inactive) and greater than 42.2 µM, respectively.

Take `O=C1CC2CCN(C(=O)c3ccccc3)CC2CCN1` (stereo not drawn): the GI50 with HT-29, in the test on SF-295, in the test with SNB-75, in the test on HCC 2998, in the test with UACC-62 and in the test on COLO 205 was > 100 µM (inactive) in each case. Besides, the GI50 in the test with OVCAR-5, with NCI-H23, in the test with HOP-92, in the test with OVCAR-4, in the test with K562 and with MOLT-4 was > 100 µM (inactive) each time. Moreover, the figures for the GI50 with UACC-257 and in the test on HCT-15 were > 100 µM (inactive) and greater than 100 µM, respectively.

On to `O=C(NC12CC3CC(CC(C3)C1)C2)C(=O)c1c[nH]c2ccc(Br)cc12`, for which the GI50 was 3.71 µM (inactive) in the test on HT-29; 4.18 µM (inactive) in the test on SF-295; 12.6 µM (inactive) in the test on SNB-75; 22.6 µM (inactive) in the test with HCC 2998; 23.5 µM (inactive) with UACC-62; 18.6 µM (inactive) with COLO 205. In addition, the GI50 in the test with OVCAR-5 is 36.9 µM (inactive); with NCI-H23 it was 33.1 µM (inactive); in the test with HOP-92, 20.8 µM (inactive); in the test on OVCAR-4, 14 µM (inactive); in the test with K562, 8.39 µM (inactive); in the test with MOLT-4 it was 5.41 µM (inactive). Also, the figures for the GI50 in the test on UACC-257 and in the test with HCT-15 were 43.4 µM (inactive) and 5.79 µM, respectively.
